Measured values as given in US20200352976A1, “HYPOMETHYLATING AGENTS FOR USE IN TREATMENT OF CANCER” (Otsuka Pharmaceutical Co., Ltd, priority 2019, published 2020).
“And” between values parts separate entries of the source, which are not always exact repeats. Equal values may be shown once.

Columns and labels:
[1] = Phase 2 study in relapsed/refractory AML: safety; parameters: species or system human; details: in vivo
Procedure: A Phase 2 study of Compound I-1 using different regimens and doses (randomized 5-day regimen cohorts of 60 mg/m^2/d vs 90 mg/m^2/d SC) and a cohort of 10-day regimen in the first 1-4 cycles at 60 mg/m^2/d followed by subsequent cycles of 5-day regimen) was conducted as described above. Response and duration of response were assessed using IWG 2003 criteria: Complete Response (CR), CR with incomplete platelet recovery (CRp), and CR with incomplete count recovery (CRi). CR+CRp+CRi was defined as composite CR (CRc). Overall survival (OS) was assessed using the Kaplan-Meier (KM) method. Response status for each dose/regimen cohort and the overall treated population were assessed with analyses of duration of response and long-term survival.

[2] = system: treatment naïve acute myeloid leukemia (TN-AML); test: Phase 3 randomized trial Compound I-1 vs treatment choice: CR, OS, PFS, EFS, subgroup analyses; format: in vivo, human; details: for EFS HR (95% CI) / PFS HR (95% CI): Compound I-1/TC
Procedure: A Phase 3 randomized trial comparing Compound I-1 to a treatment choice of azacitidine, decitabine, or Low Dose Ara-C(LDAC) in patients with AML was performed.
The patients were randomized 1:1 to either Compound I-1 (60 mg/m^2/d subcutaneous injection for 5 days of a 28-day cycle), or a preselected treatment choice of azacitidine, decitabine, or LDAC at standard doses. AML diagnosis and response status were assessed by an independent blinded central pathologist. CR and OS were the co-primary endpoints.
Compound I-1 powder was reconstituted at a concentration of 100 mg/mL and administered subcutaneously (SC) at a dose of 60 mg/m^2 daily on days 1-5 of a 28-day cycle.
LDAC was given at a dose of 20 mg SC twice daily (BID) on days 1-10 of a 28-day cycle. Decitabine was given at a dose of 20 mg/m^2 as a 1-hour intravenous (IV) infusion on days 1-5 of a 28-day cycle. Azacitidine was given IV or SC daily on days 1-7 of a 28-day cycle at a dose of 75 mg/m^2. Other TC treatment parameters such as dose adjustment guidelines followed locally approved prescribing information and institutional standard practice.
Two co-primary endpoints were used: complete response (CR) rate based on modified International Working Group (IWG) 2003 AML Response Criteria and OS (the number of days from randomization to death). Secondary endpoints included CRc (CR+CR with incomplete blood count recovery [CRi]+CR with incomplete platelet recovery [CRp]) rate, number of days alive and out of the hospital (NDAOH), progression-free survival (PFS), health related quality of life (QOL) by EQ-5D (consisting of the EQ-5D-5L descriptive system and the EQ Visual Analogue Scale [EQ VAS]), duration of CR (the time from first CR to time of relapse), incidence and severity of adverse events (AEs), and 30- and 60-day all-cause mortality.
CR rate was compared between Compound I-1 and TC groups using Cochran Mantel-Haenszel test at an alpha of 0.04, stratified by the stratification factors used at randomization. OS curves were estimated using Kaplan-Meier (K-M) method and formally compared between Compound I-1 and TC groups using a 2-sided stratified log-rank test, stratified by the same stratification factors used at randomization. Sensitivity analyses were conducted for CR rate and OS to evaluate the robustness of the treatment effect.
CRc rate was compared between treatment groups using a Cochran Mantel-Haenszel test with the same stratification variable as for CR and OS. NDAOH was compared between treatment groups using an analysis of variance model (ANOVA) with stratification variables used as fixed factors. PFS was compared between treatment groups using a stratified log-rank test.
The number of RBC and platelet transfusions up to Day 180 were summarized descriptively. 95% CI of the mean was also provided. The EQ-5D-5L index values and EQ VAS up to Day 180 were analyzed descriptively and using a mixed model approach for repeated measures.
Data obtained during the trial of EXAMPLE 4 were further analyzed for selected subgroups of patients including patients who achieved CR in patients who received at least 4 or 6 treatment cycles.
TN-AML patients ineligible for intensive chemotherapy (IC) due to age ≥75 y, coexisting morbidities, or ECOG PS 2-3 were randomized 1:1 to either Compound I-1 (60 mg/m^2/d SC for 5-days Q28 days) or a preselected treatment choice (TC) of azacitidine (AZA), decitabine (DEC), or low-dose Ara-C(LDAC) at the prescribed dosing schedule. AML diagnosis and response status were assessed by an independent central pathologist blinded to randomization assignment. Complete response (CR) and overall survival (OS) were the co-primary endpoints. The patients' characteristics, number of treatment cycles, reasons for treatment discontinuation, CR, and OS including analyses by number of cycles received including prospective subgroups, and OS analyses of responders and non-responders were analyzed. […]

[3] = number of days alive and out of the hospital
[4] = patients with at least 4 cycles
[5] = patients with at least 4 cycles (n = 476)
[6] = patients with at least 6 cycles
[7] = patients with at least 6 cycles (n = 375)

Which “Grade 3 or higher AEs related to the drug” value [1] does the source give for `Nc1ncn([C@H]2CC(OP(=O)(O)OC[C@H]3O[C@@H](n4cnc5c(=O)[nH]c(N)nc54)CC3O)[C@@H](CO)O2)c(=O)n1` (stereo partly drawn) [Compound I-1] here?
Its value is 42%.

And the “Related serious AEs leading to death” value [1]?
Its value is “no related serious AEs leading to death”.

And the “CR odds ratio (logistic regression)” value ([2]; Compound I-1 vs TC)?
The value was 1.14.

What about the “CR rate Treatment Difference” value ([2]; Compound I-1 vs TC) of the same molecule?
Its value is 1.92%.

What about the “CRc rate Treatment Difference” value ([2]; Compound I-1 vs TC) of the same molecule?
Its value is 0.39.

And the “NDAOH LS Mean Treatment Difference” value ([2]; Compound I-1 vs TC)?
The value was −7.8.

And the “Overall survival hazard ratio” value ([2]; Compound I-1 vs each treatment choice)?
The value was “less than 1”.

And the 12-month survival rate ([2]; ITT)?
Its 12-month survival rate is 37%.

What about the 24-month survival rate ([2]; ITT) of the same molecule?
The 24-month survival rate was 18%.

What about the “Median PFS” value ([2]; ITT) of the same molecule?
The value was 5.3 months.

And the “Overall Survival K-M Estimate, 25th percentile” value ([2]; ITT)?
The value was 71.0 days.

And the “Overall Survival K-M Estimate, 75th percentile” value ([2]; ITT)?
The value was 584.0 days.

What about the “Overall Survival K-M Estimate, Median” value ([2]; ITT) of the same molecule?
Its value is 213 days and 213.0 days.

What about the “PFS K-M Estimate, Median” value ([2]; ITT) of the same molecule?
Its value is 159 days.

What about the “Survival, 75th percentile” value ([2]; ITT) of the same molecule?
Its value is 19.5 months.

And the “Median EFS” value ([2]; ITT Population (n = 815))?
The value was 5.1 months.

And the “Median OS” value ([2]; ITT Population (n = 815))?
Its value is 7.1 months.

What about the “EFS HR (95% CI)” value ([2]; ITT Population) of the same molecule?
Its value is 0.85 (0.74-0.98), p 0.02.

And the “PFS HR” value ([2]; ITT, Compound I-1 vs TC)?
Its value is 0.99 (0.86-1.15), p 0.93.

What about the 12-month survival rate ([2]; ITT, as fraction) of the same molecule?
Its 12-month survival rate is 0.37.

And the 24-month survival rate ([2]; ITT, as fraction)?
The 24-month survival rate was 0.18.

And the “CRc (CR + CRi + CRp)” value ([2]; ITT, N = 408 / 407)?
The value was 93 subjects.

And the “Complete Response (CR)” value ([2]; ITT, N = 408 Compound I-1, N = 407 TC)?
Its value is 79 subjects.

What about the “Overall survival hazard ratio” value ([2]; baseline TP53 mutations (94 patients), Compound I-1 vs treatment choice) of the same molecule?
The value was 1.8.

What about the “Median duration of CR” value ([2]; complete responders) of the same molecule?
The value was 7.2 months.

And the “EQ VAS LS mean change from baseline” value ([2]; first 6 months)?
The value was 0.87.

What about the “Platelet transfusions, mean” value ([2]; first 6 months) of the same molecule?
The value was 12.5 units.

And the “RBC transfusions, mean” value ([2]; first 6 months)?
Its value is 16.2 units.

What about the “Index EQ-5D-5L score LS mean difference” value ([2]; first 6 months, Compound I-1 vs TC) of the same molecule?
The value was −0.019.

And the “Mean NDAOH over 6 months” value ([2]; in vivo)?
Its value is 3.3 months.

What about the “NDAOH per patient-year rate” value ([2]; in vivo) of the same molecule?
The value was 297 days.

What about the One-year survival rate ([2]; landmark analysis (approximately 4 months), at least 4 cycles) of the same molecule?
Its One-year survival rate is 51%.

And the “Overall survival hazard ratio” value ([2]; landmark analysis, greater than 3 treatment cycles, Compound I-1 vs TC)?
The value was 0.78.

What about the “Treatment Discontinuation Before 4 Cycles: Progressive Disease” value ([2]; n = 408 I-1, n = 407 TC) of the same molecule?
The value was 7.6%.

And the “Treatment Discontinuation Before 6 Cycles: Progressive Disease” value ([2]; n = 408 I-1, n = 407 TC)?
Its value is 10.8%.

What about the “OS HR” value ([2]; non-responders, at least 6 cycles, Compound I-1 vs TC) of the same molecule?
The value was 0.73.

And the “NDAOH in First 6 Months, LS Mean” value [2, 3]?
Its value is 98.9.

What about the “NDAOH in First 6 Months, Mean” value [2, 3] of the same molecule?
The value was 98.1.

And the “Median EFS” value ([2]; patients who achieved an objective response (CR, CRp, CRi, or PR))?
Its value is 17.4 m.

What about the “EFS HR” value ([2]; patients who achieved an objective response, Compound I-1 vs TC) of the same molecule?
The value was 0.68.

And the “Median OS” value [2, 4]?
The value was 15.6 months.

What about the “CR Rate” value ([2]; patients with at least 4 cycles (n = 235 I-1; n = 241 TC)) of the same molecule?
Its value is 33.6%.

And the “Median EFS” value [2, 5]?
Its value is 12.1 months.

And the “Median PFS” value [2, 5]?
Its value is 10.3 months.

What about the “EFS HR (95% CI)” value [2, 4] of the same molecule?
The value was 0.74 (0.61-0.9), p 0.002.

And the “PFS HR (95% CI)” value [2, 4]?
Its value is 0.88 (0.73-1.06), p 0.17.

And the “OS HR (95% CI)” value ([2]; patients with at least 4 cycles, Compound I-1 vs TC)?
Its value is 0.78 (0.64, 0.96), p 0.02 and 0.78 (0.64-0.96), p 0.02.

What about the “Median OS” value [2, 6] of the same molecule?
The value was 19.5 months.

What about the “CR Rate” value ([2]; patients with at least 6 cycles (n = 187 I-1; n = 188 TC)) of the same molecule?
The value was 40.1%.

What about the “Median EFS” value [2, 7] of the same molecule?
Its value is 14.9 months.

And the “Median PFS” value [2, 7]?
The value was 11.9 months.

And the “EFS HR (95% CI)” value [2, 6]?
Its value is 0.69 (0.56-0.86), p 0.001.

And the “PFS HR (95% CI)” value [2, 6]?
Its value is 0.86 (0.7-1.07), p 0.17.

What about the “OS HR (95% CI)” value ([2]; patients with at least 6 cycles, Compound I-1 vs TC) of the same molecule?
Its value is 0.69 (0.54, 0.88), p 0.002 and 0.69 (0.54-0.88), p 0.002.

What about the “OS HR” value ([2]; responders (CR, CRp, CRi, or PR), at least 6 cycles, Compound I-1 vs TC) of the same molecule?
The value was 0.66.

What about the “OS HR” value ([2]; subjects who achieved any CR (CR, CRp, or CRi), Compound I-1 vs TC, post hoc) of the same molecule?
Its value is 0.72.

And the “Overall survival hazard ratio” value ([2]; without TP53 mutations (696 patients), Compound I-1 vs treatment choice)?
The value was 0.86.
